# Assay results published in patent US8273788B2, “Five-membered iminocyclitol derivatives as selective and potent glycosidase inhibitors: new structures for antivirals and osteoarthritis therapeutics” (Academia Sinica, Taiwan, priority 2005, dated 2012).
# Values joined by “and” are separate entries in the source; they are usually repeats but may differ in a detail not shown here. Equal values may be shown once. Read-outs that look alike come from different tables or passages of the source.
# How the values were obtained:
# [1] = target: human N-acetyl-β-hexosaminidases; settings: previous study [30]; cited from earlier work
# [2] = target: β-glucosidase; assay: β-glucosidase inhibition assay (in situ screen, IC50, Ki); assay type: biochemical, almonds; settings: for IC50: pure compound; for β-glucosidase Inhibition (%): reaction product at 20 μM, in situ screening; for Ki: value in brackets
# Protocol: (§1) A mixture of iminocyclitol 4, a carboxylic acid (1 equiv, Scheme 2), diisopropyl ethylamine (DIEA, 2.2 equiv), and (1H-benzotriazole-1-yl)-1,1,3,3-tetramethyl-uronium hexafluorophosphate (HBTU, 1.1 equiv) in DMSO was shaken in 96-well microtiter plates for 5 h. Crude reaction products were randomly selected (30%) and analyzed by ESI-MS to ensure the presence of the desired products. The reaction mixture was diluted by appropriate buffer solutions and transferred to another 96-well microtiter plate for screening directly without any purification. […] Assuming the amide formation is complete, the percentage of inhibition relative to the control was calculated on the basis of absorbance at 405 nm for p-nitrophenol released from their corresponding substrates.
# (§2) Enzyme assay. General procedure for the assay with various glycosidases. The initial velocities of the hydrolysis were measured spectrophotometrically at various concentrations of p-nitrophenyl-glycopyranoside (4 mM, 2 mM, 1 mM, 0.5 mM, 0.25 mM, 0.125 mM, 0.0625 mM) at 405 nm using Bio Assay Reader (Perkin Elmer HTS 7000 Plus) at 30° C. The obtained data were fitted into the Michaelis-Menten equation by using the Kaleida Graph program to determine the apparent Km values. […] The assays performed in wells of the microtiter plate contained either sodium phosphate buffer (50 mM, pH 7, for α- and β-glucosidase, α- and β-galactosidase, α- and β-mannosidase, α-fucosidase), or Mcllvaine's buffer (25 mM, pH 6, N-acetyl-β-hexosaminidase, jack bean).
# (§3) The secondary plot was generated by plotting the apparent Km values as a function of inhibitor concentrations. Ki was calculated from the negative value of the x-intercept of this plot.
# [3] = target: T1, α-glucosidase (Saccharomyces cerevisiae, UniProt P53341); assay: α-glucosidase inhibition assay (in situ screen, IC50, Ki); assay type: biochemical, baker's yeast; settings: for IC50: pure compound
# T1 construct: purchased Sigma Co. (St. Louis, Mo.); host or cells: baker's yeast
# T1 sequence (P53341 whole entry): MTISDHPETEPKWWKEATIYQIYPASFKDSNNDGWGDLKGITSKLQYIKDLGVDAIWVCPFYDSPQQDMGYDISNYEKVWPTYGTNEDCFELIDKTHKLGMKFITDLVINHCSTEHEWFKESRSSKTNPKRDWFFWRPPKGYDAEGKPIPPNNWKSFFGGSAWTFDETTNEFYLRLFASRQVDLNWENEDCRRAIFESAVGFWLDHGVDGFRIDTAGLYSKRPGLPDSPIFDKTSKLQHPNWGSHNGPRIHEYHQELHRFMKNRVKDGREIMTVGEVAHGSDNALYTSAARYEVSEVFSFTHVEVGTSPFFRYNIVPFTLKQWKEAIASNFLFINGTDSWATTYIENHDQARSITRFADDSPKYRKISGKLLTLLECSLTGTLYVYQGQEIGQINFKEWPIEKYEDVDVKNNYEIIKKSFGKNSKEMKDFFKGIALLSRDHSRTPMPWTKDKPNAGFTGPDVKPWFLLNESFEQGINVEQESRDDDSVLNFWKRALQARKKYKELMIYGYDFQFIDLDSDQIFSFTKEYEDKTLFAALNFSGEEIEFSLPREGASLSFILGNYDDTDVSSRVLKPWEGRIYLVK
# Protocol: as §1
# General procedure for coupling reactions and in situ screening. To a DMSO solution (10 μL) in each well of a 96-well microtiter plate was added each carboxylic acid (10 μL from a 10 mm stock solution in DMSO, 0.1 μmol), HBTU (10 μL from a 11 mm stock solution in DMSO, 1.1 equiv, 0.11 μmol), and DIEA (10 μL from a 22 mM stock solution in DMSO, 2.2 equiv, 0.22 μmol).
# as §2, §3
# [4] = target: N-acetyl-β-hexosaminidase; assay: N-acetyl-β-hexosaminidase inhibition assay (in situ screen, IC50, Ki); assay type: biochemical, jack bean; settings: for IC50: pure compound, read-out: N-acetyl-β-hexosaminidse IC50; for N-acetyl-β-hexosaminidse Inhibition (%): reaction product at 30 μM, in situ screening
# Protocol: as §1, §2, §3
# [5] = system: Japanese encephalitis virus (JEV); assay: Anti-JEV cell-based assay (plaque forming assay, BHK-21 cells); settings: for IC50: read-out: JEV IC50; for IC50 / IC90: M.O.I. = 0.1, virus production, BHK-21 cells; for IC90: read-out: JEV IC90
# [6] = system: dengue virus serotype 2 (DEN-2); assay: Anti-DEN-2 cell-based assay (plaque forming assay, BHK-21 cells); settings: for IC50: read-out: DEN IC50; for IC50 / IC90: M.O.I. = 0.1, virus production, BHK-21 cells; for IC90: read-out: DEN IC90
# [7] = system: SARS-CoV; assay type: cell-based, SARS-CoV (H. K. strain); settings: Vero E6 cells
# [8] = system: BHK-21 cells; assay: XTT cell viability assay; assay type: cell-based; settings: 10 μM, FIG. 2A
# Protocol: XTT assay. To determine cell viability, a colorimetric XTT-based assay was performed (Cell Proliferation Kit II; Roche). BHK-21 cells in a 96-well plate were incubated with various concentrations of inhibitors for 2 days before the XTT labeling reagent was added to the culture medium. Cells were incubated at 37° C. for about 30 min and then read by an enzyme-linked immunosorbent assay (ELISA) reader at 450 nm (Molecular Devices).
# [9] = system: human chondrosarcoma cells; settings: cell-associated fraction and culture supernatant; previous study; cited from earlier work
# [10] = target: human placenta N-acetyl-β-hexosaminidase; assay: Kinetic analysis of human placenta β-hexosaminidase; assay type: biochemical; settings: substrate 4-MU-GNAc, pH 4.5
# Protocol: Our strategy began with reductive amination of compound 5 with aldehydes of different lengths to give compounds 43-49 (FIG. 4). The intermediates were either deprotected under acidic conditions or hydrogenolysed to give primary amines 50-56. […] Thus, the inhibition studies of compounds 51-56 against human placenta N-acetyl-β-hexosaminidase were carried out. 4-Methylumbelliferyl N-acetyl-β-D-glucosaminide (4-MU-GNAc) was used as the substrate. The apparent Km and Vmax values for each substrate were calculated from the Lineweaver-Burke double reciprocal plot of [1/v]/[1/S]. The Ki values were determined from a replot of the Km (app) vs the inhibitor concentration. […] (FIG. 4). […] Compound 54 with a heptamine moiety was the strongest inhibitor. […] As the crystal structure of human β-hexosaminidase B is now avalible,^[43] its complex with 54 was modeled to reveal a narrow hydrophobic cleft in the active site, which is mainly enclosed by the side-chain groups of residues W424, Y450, […], L453 and the backbone of residues K425 and D426 (FIG. 5). The amino group at the terminal site is expected to be largely protonated when binding with the enzyme. It presumably forms a salt bridge with the secondary aglycon binding site of the enzyme.^[44] It appears that the alkyl linkage is long enough to bring the amine end near enough to have hydrogen-bond interactions with the backbone carbonyl of K425 and A447 and a possible ionic interaction with the carboxyl group of D426.
# Kinetic analysis of human placenta β-hexosaminidase. Incubations were performed in a total volume of 200 μL. Unless otherwise stated, reaction mixtures contained 100 mM citrate buffer (pH 4.5), various amount of 4-methylumbelliferyl N-acetyl-β-D-glucosaminide, and various amounts of inhibitors with 0.02 mU/well of β-hexosaminidase. After incubation for 15 min at 30° C., the reaction was terminated by the addition of 0.5 M sodium glycine buffer, pH 10.5. Enzyme activity was measured by the release of 4-methylumbelliferone with the excitation wavelength of 360 nm and the emission wavelength of 460 nm.
# [11] = system: dengue virus serotype 2 (DEN-2); settings: earlier work [16]; cited from earlier work
# [12] = system: Japanese encephalitis virus (JEV); settings: earlier work [16]; cited from earlier work
# [13] = reaction product at 20 μM, in situ screening
# [14] = value in brackets, read-out: α-glucosidase (Ki)
structure (smiles),measurement,setting,value
CC(=O)NC[C@H]1N[C@H](CO)[C@@H](O)[C@@H]1O [Compound 5],Ki,[1],0.024 µM
same,IC50,[2],> 500 µM
same,β-glucosidase Inhibition (%),[2],20%
same,IC50,[3],280 µM
same,inhibition at 20 µM,[3]; [13],12%
same,IC50,[4],0.16 µM
same,N-acetyl-β-hexosaminidse Inhibition (%),[4],85%
same,Ki,"[4]; value in brackets, read-out: N-acetyl-β-hexosaminidse (Ki)",0.022 µM
CCCCC(CC)C(=O)NC[C@H]1N[C@H](CO)[C@@H](O)[C@@H]1O (stereo partly drawn) [Compound 7],IC50,[2],4.8 µM
same,β-glucosidase Inhibition (%),[2],52%
same,inhibition of JEV infection,[5]; at 50 and 100 μM,no inhibition
same,IC50,[3],4 µM
same,α-glucosidase Inhibition (%),[3]; [13],61%
same,IC50,[4],19 µM
same,N-acetyl-β-hexosaminidse Inhibition (%),[4],20%
same,inhibition of DEN-2 infection,[6]; at 50 and 100 μM,no inhibition
O=C(Cc1cccc2ccccc12)NC[C@H]1N[C@H](CO)[C@@H](O)[C@@H]1O [Compound 17],IC50,[2],92 µM
same,β-glucosidase Inhibition (%),[2],45%
same,inhibition of JEV infection,[5]; at 50 and 100 μM,no inhibition
same,IC50,[3],0.28 µM
same,α-glucosidase Inhibition (%),[3]; [13],94%
same,Ki,[3]; [14],0.077 µM
same,N-acetyl-β-hexosaminidse Inhibition (%),[4],45%
same,inhibition of DEN-2 infection,[6]; at 50 and 100 μM,no inhibition
O=C(Cc1c[nH]c2ccccc12)NC[C@H]1N[C@H](CO)[C@@H](O)[C@@H]1O [Compound 20],IC50,[2],130 µM
same,β-glucosidase Inhibition (%),[2],23%
same,inhibition of JEV infection,[5]; at 50 and 100 μM,no inhibition
same,IC50,[3],1.2 µM
same,α-glucosidase Inhibition (%),[3]; [13],85%
same,Ki,[3]; [14],0.43 µM
same,N-acetyl-β-hexosaminidse Inhibition (%),[4],29%
same,inhibition of DEN-2 infection,[6]; at 50 and 100 μM,no inhibition
O=C(/C=C/c1c[nH]c2ccccc12)NC[C@H]1N[C@H](CO)[C@@H](O)[C@@H]1O [Compound 22],IC50,[2],260 µM
same,β-glucosidase Inhibition (%),[2],34%
same,inhibition of JEV infection,[5]; at 50 and 100 μM,no inhibition
same,IC50,[3],0.81 µM
same,α-glucosidase Inhibition (%),[3]; [13],42%
same,IC50,[4],63 µM
same,N-acetyl-β-hexosaminidse Inhibition (%),[4],16%
same,inhibition of DEN-2 infection,[6]; at 50 and 100 μM,no inhibition
O=C(NC[C@H]1N[C@H](CO)[C@@H](O)[C@@H]1O)C1Cc2ccccc21 (stereo partly drawn) [Compound 24],IC50,[2],92 µM
same,β-glucosidase Inhibition (%),[2],45%
same,inhibition of JEV infection,[5]; at 50 and 100 μM,no inhibition
same,selectivity for α- over β-glucosidase,[3],600 fold
same,IC50,[3],0.15 µM
same,α-glucosidase Inhibition (%),[3]; [13],93%
same,Ki,"[3]; text b9, read-out: Ki, α-glucosidase",0.053 µM
same,Ki,"[3]; text b34, read-out: Ki against yeast α-glucosidase",0.053 µM
same,Ki,[3]; [14],0.053 µM
same,increase in activity compared to parent core 4,[3]; α-glucosidase,100 fold
same,IC50,[4],11 µM
same,N-acetyl-β-hexosaminidse Inhibition (%),[4],9%
same,inhibition of DEN-2 infection,[6]; at 50 and 100 μM,no inhibition
COc1ccc(/C=C/C(=O)NC[C@H]2N[C@H](CO)[C@@H](O)[C@@H]2O)cc1OC(C)=O [Compound 28],IC50,[2],2.4 µM
same,Ki,[2],1.24 µM and 1.2 µM
same,IC50,[3],250 µM
same,α-glucosidase Inhibition (%),[3]; [13],27%
same,N-acetyl-β-hexosaminidse Inhibition (%),[4],52%
CN(C)c1ccc(/C=C/C(=O)NC[C@H]2N[C@H](CO)[C@@H](O)[C@@H]2O)cc1 [Compound 29],IC50,[2],3.2 µM
same,β-glucosidase Inhibition (%),[2],55%
same,Ki,[2],1.4 µM
same,IC50,[3],280 µM
same,α-glucosidase Inhibition (%),[3]; [13],22%
same,IC50,[4],7.02 µM
same,N-acetyl-β-hexosaminidse Inhibition (%),[4],17%
CC(=O)OC[C@H]1N[C@H](CNC(=O)C2Cc3ccccc32)[C@@H](OC(C)=O)[C@@H]1OC(C)=O (stereo partly drawn) [Compound 30],inhibition of JEV infection,[5]; at 50 μM,no inhibition
same,inhibition of DEN-2 infection,[6]; at 50 μM,no inhibition
CCCCCCCCCN1C(CO)C(O)C(O)C1CNC(=O)C1Cc2ccccc21 (stereo not drawn) [Compound 36],IC50,[5],11.3 ± 1.9 µM
same,IC90,[5],17.5 ± 0.8 µM
same,IC50,[6],11.8 ± 0.2 µM
same,IC90,[6],18 ± 0.2 µM
CCCCCCCCCCN1C(CO)C(O)C(O)C1CNC(=O)C1Cc2ccccc21 (stereo not drawn) [Compound 37],IC50,[5],9.6 ± 0.8 µM
same,IC90,[5],18 ± 0.2 µM
same,IC50,[6],4.7 µM
same,IC90,[6],9.2 µM
same,IC50,[7],3.3 to 10 µM
CCCCCCCCCCCCN1C(CO)C(O)C(O)C1CNC(=O)C1Cc2ccccc21 (stereo not drawn) [Compound 38],IC50,[5],7.6 ± 0.1 µM
same,IC90,[5],9.7 ± 0.1 µM
same,"cytotoxicity (XTT assay, cell proliferation)",[8],low level of cytotoxicity
same,IC50,[6],6 ± 0.5 µM
same,IC90,[6],9.1 ± 0.3 µM
"CC(=O)NC[C@@H]1[C@@H](O)[C@H](O)[C@@H](CO)N1C [Compound 42, (2R,3R,4R,5R)—N-methyl-2-(acetamido-methyl)-3,4-dihydroxy-5-(hydroxymethyl)pyrrolidine]",Ki,[1],0.024 µM
same,effect on glycosaminoglycans (GAGs),[9],accumulation of glycosaminoglycans (GAGs) in the cell-associated fraction and a decrease in the release of GAGs into the culture supernatant
CC(=O)NCC1C(O)C(O)C(CO)N1CCCCCCCN (stereo not drawn) [Compound 54],Ki,[10],0.0026 µM
CC(=O)NCC1C(O)C(O)C(CO)N1CCOCCOCCN (stereo not drawn) [Compound 56],Ki,[10],0.06 µM
CCCCCCN1C(CO)C(O)C(O)C1CNC(C)=O (stereo not drawn) [Compound 57],Ki,[10],0.18 µM
CCCCCCCN1C(CO)C(O)C(O)C1CNC(C)=O (stereo not drawn) [Compound 58],Ki,[10],0.25 µM
CCCCCCCCN1C(CO)C(O)C(O)C1CNC(C)=O (stereo not drawn) [Compound 59],Ki,[10],0.16 µM
"CCCCCCCCCN1C[C@H](O)[C@@H](O)[C@@H](O)[C@H]1CO [NN-DGJ, N-nonyldeoxygalactonojirimycin]",inhibition of DEN-2,[11],did not inhibit
same,inhibition of JEV,[12],did not inhibit
